Susceptibility to antibiotics data for ten compounds are collected here from patent US4027014A, “Antibiotic BN-130 substances and the production thereof” (Meiji Seika Kaisha, Ltd., priority 1974, dated 1977).

In this experiment the test system is BN-130 strain. The experiment can be described thus: Susceptibility of the BN-130 strain to antibiotics. It is filed as cell-based, Pseudomonas stutzeri.
Take `O=C(N[C@H](CO)[C@H](O)c1ccc([N+](=O)[O-])cc1)C(Cl)Cl` [Chloramphenicol]: the Susceptibility to antibiotics entry is recorded as “Susceptible to a medium degree”.

For `CC1(C)S[C@@H]2[C@H](NC(=O)Cc3ccccc3)C(=O)N2[C@H]1C(=O)O` [Penicillin], the Susceptibility to antibiotics entry is “Resistant”.

For `CN(C)[C@@H]1C(O)=C(C(N)=O)C(=O)[C@@]2(O)C(O)=C3C(=O)c4c(O)cccc4[C@@](C)(O)[C@H]3C[C@@H]12` [Tetracycline], the Susceptibility to antibiotics entry is “Susceptible”.

On to `CC1(C)S[C@@H]2[C@H](NC(=O)[C@H](N)c3ccccc3)C(=O)N2[C@H]1C(=O)O` [aminobenzylpenicillin], for which the Susceptibility to antibiotics result is given as “Resistant”.

As for `O=C(Cc1cccs1)N[C@@H]1C(=O)N2C(C(=O)[O-])=C(C[n+]3ccccc3)CS[C@H]12` [cephaloridine], the Susceptibility to antibiotics result is reported as “Resistant”.

As for `NC[C@H]1O[C@H](O[C@H]2[C@H](O)[C@@H](O[C@H]3O[C@H](CO)[C@@H](O)[C@H](N)[C@H]3O)[C@H](N)C[C@@H]2N)[C@H](O)[C@@H](O)[C@@H]1O` [kanamycin], the Susceptibility to antibiotics entry is “Susceptible to a medium degree”.

Regarding `CCn1cc(C(=O)O)c(=O)c2ccc(C)nc21` [nalidixic acid], the Susceptibility to antibiotics result is on record as “Susceptible”.

Consider `[H]/N=C(/N)N[C@H]1[C@H](O)[C@@H](O)[C@H](O[C@@H]2O[C@@H](C)[C@](O)(C=O)[C@H]2O[C@@H]2O[C@@H](CO)[C@H](O)[C@@H](O)[C@@H]2NC)[C@@H](N/C(N)=N\[H])[C@@H]1O` [streptomycin], for which the Susceptibility to antibiotics entry is listed as “Susceptible to a medium degree”.

Turning to colistin, the Susceptibility to antibiotics result is listed as “Susceptible”.

As to polymixin, the Susceptibility to antibiotics entry is recorded as “Susceptible”.
